The results in this text go back to PubChem BioAssay (NCI).

Some test systems named below: CCRF-CEM leukemia; EKVX NSCLC; HCT-116 colon; HCT-15 colon; KM12 colon; MCF7 breast; SK-MEL-2 melanoma; SK-MEL-28 melanoma; SN12C renal; U251 CNS.
Holding throughout (test): NCI-60 cell line screen, 48 h

Several values for one entry are separate records, joined by “and”; a condition that tells them apart may be missing. Equal values may be shown once.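 Five concentrations, 48 hours, 96-well plates. Here, GI50 denotes the concentration required for 50% inhibition of growth. The concentration for full growth arrest is given as TGI.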

For the compound `Cn1cnc2c(F)c(Nc3ccc(Br)cc3F)c(C(=O)NOCCO)cc21`, the GI50 with CCRF-CEM leukemia is > 100 µM; with EKVX NSCLC it was 0.109 µM and 0.503 µM; in the test on HCT-116 colon, 0.203 µM and 0.317 µM; in the test on HCT-15 colon, 57.5 µM; in the test on KM12 colon it was 0.264 µM and 0.445 µM; with MCF7 breast, > 100 µM. Moreover, the GI50 in the test on SK-MEL-2 melanoma is 0.0296 µM and 0.0113 µM; in the test on SK-MEL-28 melanoma, 0.0269 µM and 0.0304 µM; in the test with SN12C renal, 13.7 µM; with U251 CNS, 7.78 µM. Moreover, the TGI in the test on CCRF-CEM leukemia, in the test on EKVX NSCLC, in the test with HCT-116 colon, with HCT-15 colon, in the test on KM12 colon and in the test with MCF7 breast was > 100 µM in each case. Besides, the TGI in the test with SK-MEL-2 melanoma is 0.448 µM and 0.0766 µM; in the test with SK-MEL-28 melanoma it was 0.321 µM and 0.889 µM; with SN12C renal it was > 100 µM; with U251 CNS it was > 100 µM.

On to `Nc1c(C(=O)N/N=C/c2ccc(-c3cc(Cl)c(Cl)cc3Cl)o2)cnn1-c1ccnc2c(C(F)(F)F)cccc12`, for which the GI50 with CCRF-CEM leukemia is 3.9 µM; in the test on EKVX NSCLC, 3.09 µM; in the test with HCT-116 colon, 3.42 µM; in the test with HCT-15 colon, 3.43 µM; with KM12 colon it was 3.83 µM; in the test on MCF7 breast, 3.42 µM. Also, the GI50 with SK-MEL-2 melanoma is 5.31 µM; in the test with SK-MEL-28 melanoma, 4.03 µM; with SN12C renal it was 4.42 µM; in the test with U251 CNS, 4.18 µM. Moreover, the TGI in the test on CCRF-CEM leukemia was > 100 µM; with EKVX NSCLC, 49.1 µM; in the test with HCT-116 colon it was > 100 µM; in the test with HCT-15 colon, > 100 µM; with KM12 colon, > 100 µM; in the test on MCF7 breast it was > 100 µM. Moreover, the TGI is 34.3 µM with SK-MEL-2 melanoma, > 100 µM in the test on SK-MEL-28 melanoma, > 100 µM in the test on SN12C renal and > 100 µM in the test on U251 CNS.

As for `FC(F)(F)c1cccc2c(SCCc3n[nH]c(=S)o3)ccnc12`, the GI50 with CCRF-CEM leukemia is 38.6 µM; with EKVX NSCLC it was 27.6 µM; in the test on HCT-116 colon, 44.4 µM; with HCT-15 colon, 66.2 µM; in the test on KM12 colon, 52.7 µM; in the test on MCF7 breast, 41.6 µM. Also, the GI50 in the test on SK-MEL-2 melanoma was 25.4 µM; in the test on SK-MEL-28 melanoma, 82.9 µM; in the test with SN12C renal it was 51.4 µM; with U251 CNS, 53.3 µM. The TGI in the test with CCRF-CEM leukemia, in the test on EKVX NSCLC, in the test with HCT-116 colon, in the test with HCT-15 colon, in the test on KM12 colon and in the test on MCF7 breast was > 100 µM in each case. In addition, the TGI in the test on SK-MEL-2 melanoma was 82.6 µM; with SK-MEL-28 melanoma, > 100 µM; with SN12C renal, > 100 µM; with U251 CNS, > 100 µM.

For `O=C(N/N=C/c1ccc(Cl)cc1Cl)c1ccc2nc(-c3ccc(Cl)cc3)[nH]c2c1`, the GI50 in the test with CCRF-CEM leukemia was 1.43 µM; in the test on EKVX NSCLC, 1.82 µM; in the test with HCT-116 colon it was 1.45 µM; with HCT-15 colon it was 1.42 µM; in the test with KM12 colon it was 2.03 µM; in the test with MCF7 breast, 1.15 µM. Besides, the GI50 was 2.09 µM in the test on SK-MEL-2 melanoma, 1.58 µM in the test on SK-MEL-28 melanoma, 1.96 µM with SN12C renal and 2.1 µM in the test with U251 CNS. In addition, the TGI with CCRF-CEM leukemia was 9.03 µM; in the test on EKVX NSCLC it was 3.68 µM; with HCT-116 colon it was 3.51 µM; in the test on HCT-15 colon, 3.03 µM; with KM12 colon, 4.46 µM; with MCF7 breast, 2.56 µM. Moreover, the TGI with SK-MEL-2 melanoma turned out to be 4.64 µM; in the test with SK-MEL-28 melanoma, 3.04 µM; with SN12C renal it was 4.26 µM; with U251 CNS, 4.18 µM.

Consider `COc1cccc(N=N/C(=N\NC(=O)c2cc(Br)ccc2O)c2ccc(N(CCC#N)CCC#N)cc2OC)c1`, for which the GI50 with CCRF-CEM leukemia was 53.7 µg/mL; with EKVX NSCLC, 99.9 µg/mL; with HCT-116 colon, 46.4 µg/mL; in the test with HCT-15 colon, 52 µg/mL; in the test on KM12 colon it was 26.9 µg/mL; in the test on MCF7 breast, 43.7 µg/mL. The GI50 in the test with SK-MEL-2 melanoma is 47.9 µg/mL; with SK-MEL-28 melanoma it was 62.7 µg/mL; in the test with SN12C renal, 99.4 µg/mL; in the test with U251 CNS, 34.4 µg/mL. The TGI is > 150 µg/mL in the test with CCRF-CEM leukemia; > 150 µg/mL with EKVX NSCLC; > 150 µg/mL in the test on HCT-116 colon; > 150 µg/mL in the test with HCT-15 colon; 83.4 µg/mL with KM12 colon; > 150 µg/mL in the test with MCF7 breast. The TGI in the test on SK-MEL-2 melanoma, in the test with SK-MEL-28 melanoma, with SN12C renal and in the test with U251 CNS was > 150 µg/mL throughout.

On to `c1ccc(B2OCC(C3OB(c4ccccc4)OC4COB(c5ccccc5)OC43)O2)cc1` (stereo not given), for which the TGI with CCRF-CEM leukemia, in the test with EKVX NSCLC, with HCT-116 colon, in the test on HCT-15 colon, in the test with KM12 colon and in the test with MCF7 breast was > 100 µM each time. Further, the TGI in the test on SK-MEL-2 melanoma, in the test on SK-MEL-28 melanoma, in the test with SN12C renal and in the test with U251 CNS was > 100 µM in each case.

In the case of `COc1ccc2c(c1)c(-c1ccc(-c3cn(C)c4ccc(OC)cc34)[nH]1)cn2C`, the GI50 in the test on CCRF-CEM leukemia is 2.03 µM; with EKVX NSCLC, 1.73 µM; in the test with HCT-116 colon it was 3.04 µM; in the test on HCT-15 colon it was 1.84 µM; in the test with KM12 colon, 2.75 µM; with MCF7 breast it was 5.18 µM. For the same compound, the GI50 is 4 µM in the test with SK-MEL-2 melanoma, 3.18 µM in the test with SK-MEL-28 melanoma, 2.77 µM in the test with SN12C renal and 1.4 µM with U251 CNS. Besides, the TGI in the test with CCRF-CEM leukemia came to 5.8 µM; with EKVX NSCLC, 3.74 µM; in the test with HCT-116 colon, 12.7 µM; in the test on HCT-15 colon, 3.91 µM; in the test on KM12 colon, 9.59 µM; in the test on MCF7 breast, 24.4 µM. Moreover, the TGI in the test on SK-MEL-2 melanoma is 22.2 µM; in the test on SK-MEL-28 melanoma, 12.4 µM; in the test on SN12C renal, 10.9 µM; in the test with U251 CNS it was 3.52 µM.

Regarding `Cc1cc(C)c(S(=O)(=O)N(CCc2cccc(Br)c2)Cc2ccc(-c3cccc(S(C)(=O)=O)c3)cc2)c(C)c1`, the GI50 with CCRF-CEM leukemia, in the test with EKVX NSCLC, in the test with HCT-116 colon, with HCT-15 colon, in the test on KM12 colon and with MCF7 breast was > 100 µM each time. For the same compound, the GI50 with SK-MEL-2 melanoma, in the test on SK-MEL-28 melanoma, in the test with SN12C renal and in the test with U251 CNS was > 100 µM each time. Also, the TGI in the test with CCRF-CEM leukemia, in the test on EKVX NSCLC, in the test on HCT-116 colon, with HCT-15 colon, in the test on KM12 colon and in the test with MCF7 breast was > 100 µM throughout. Moreover, the TGI with SK-MEL-2 melanoma, with SK-MEL-28 melanoma, in the test with SN12C renal and with U251 CNS was > 100 µM throughout.
